In patent publication US12552767B2, “3-heteroaryl pyrrolidine and piperidine orexin receptor agonists” (Merck Sharp & Dohme LLC, priority 2020, dated 2026):

Target: T1, human OX2R (Homo sapiens, UniProt O43614)
T1 construct: expressed in transfected cells; host or cells: CHO (Chinese hamster ovary) cells, grown under G418 selection
T1 sequence (O43614 1-444): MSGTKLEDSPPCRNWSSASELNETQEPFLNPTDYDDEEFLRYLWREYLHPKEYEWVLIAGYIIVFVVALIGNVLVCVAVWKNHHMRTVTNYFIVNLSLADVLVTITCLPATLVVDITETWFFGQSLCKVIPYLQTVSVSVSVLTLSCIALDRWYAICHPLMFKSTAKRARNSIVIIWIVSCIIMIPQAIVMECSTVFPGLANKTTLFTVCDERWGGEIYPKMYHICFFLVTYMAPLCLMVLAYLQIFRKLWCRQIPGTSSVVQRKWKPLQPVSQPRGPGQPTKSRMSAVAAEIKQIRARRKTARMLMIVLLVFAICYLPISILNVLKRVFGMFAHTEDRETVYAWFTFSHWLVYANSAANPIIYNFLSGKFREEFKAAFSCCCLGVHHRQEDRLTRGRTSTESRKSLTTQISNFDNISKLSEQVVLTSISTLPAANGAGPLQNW
Assay: IP-One (IPOne) orexin receptor agonist assay in CHO cells expressing human OX2R
Format: cell-based
Settings: for EC50: CHO cells expressing human OX2R, IP-One IP-1 detection, 2 hours incubation, four parameter logistic fit, read-out: OX2R Potency, EC50; for % of reference agonist maximal effect: human OX2R, percentage of sample raw value/mean max effect (reference compound at 1 uM with 100% activity)
Outline: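 CHO cells stably expressing human OX2R were stimulated with compound (10-point ½-log dilutions) for 2 h at 37 °C. IP-1 accumulation was read by HTRF (IP-One, 665/620 nm). EC50 from a four-parameter fit; % effect relative to 1 μM reference agonist control.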

| SMILES | EC50 [µM] | % of reference agonist maximal effect [%] |
| --- | --- | --- |
| COCC[C@H](N)C(=O)N1CCC[C@H](c2cc[nH]n2)[C@@H]1COC1CCC(C(C)C)CC1 (stereo partly drawn) [Example 72, (S)-2-amino-1-((CIS)-2-((((CIS)-4-isopropylcyclohexyl)oxy)methyl)-3-(1H-pyrazol-3-yl)piperidin-1-yl)-4-methoxybutan-1-one] | 3.11 | 99.5 |
| CCC[C@](C)(F)C(=O)N1CCC[C@H](c2cc[nH]n2)[C@@H]1COC1CCC(C(C)C)CC1 (stereo partly drawn) [Example 89, (S)-2-fluoro-1-((CIS)-2-((((CIS)-4-isopropylcyclohexyl)oxy)methyl)-3-(1H-pyrazol-3-yl)piperidin-1-yl)-2-methylpentan-1-one] | 9.77 | 55.8 |
| CN1C[C@H](COC(=O)N2CCC[C@H](c3cc[nH]n3)[C@@H]2COC2CCC(c3ccccc3)CC2)OCC1=O (stereo partly drawn) [Example 94, ((R)-4-methyl-5-oxomorpholin-2-yl)methyl (CIS)-2-((((CIS)-4-phenylcyclohexyl)oxy)methyl)-3-(1H-pyrazol-3-yl)piperidine-1-carboxylate] | 6.64 | 93.5 |
| CC[C@H](C)COC(=O)N1CCC[C@H](c2cc[nH]n2)[C@@H]1CO[C@H]1CC[C@@H](c2ccccc2)CC1 [Example 107, (S)-2-methylbutyl (CIS)-2-((((CIS)-4-phenylcyclohexyl)oxy)methyl)-3-(1H-pyrazol-3-yl)piperidine-1-carboxylate] | 5.09 | 52.4 |
| CC[C@@H](C)OC(=O)N1CCC[C@H](c2cc[nH]n2)[C@@H]1CO[C@H]1CC[C@@H](c2ccccc2)CC1 [Example 108, (R)-sec-butyl (CIS)-2-((((CIS)-4-phenylcyclohexyl)oxy)methyl)-3-(1H-pyrazol-3-yl)piperidine-1-carboxylate] | 5.27 | 60.7 |
| C#C[C@H](C)OC(=O)N1CCC[C@H](c2cc[nH]n2)[C@@H]1CO[C@H]1CC[C@@H](c2ccccc2)CC1 [Example 115, (S)-but-3-yn-2-yl (CIS)-2-((((CIS)-4-phenylcyclohexyl)oxy)methyl)-3-(1H-pyrazol-3-yl)piperidine-1-carboxylate] | 7.47 | 51.4 |
| CC[C@H](C)OC(=O)N1CCC[C@H](c2cc[nH]n2)[C@@H]1CO[C@H]1CC[C@@H](c2ccccc2)CC1 [Example 116, (S)-sec-butyl (CIS)-2-((((CIS)-4-phenylcyclohexyl)oxy)methyl)-3-(1H-pyrazol-3-yl)piperidine-1-carboxylate] | 7.76 | 56.1 |
| CO[C@@H](C)COC(=O)N1CCC[C@H](c2cc[nH]n2)[C@@H]1CO[C@H]1CC[C@@H](c2ccccc2)CC1 [Example 119, (S)-2-methoxypropyl (CIS)-2-((((CIS)-4-phenylcyclohexyl)oxy)methyl)-3-(1H-pyrazol-3-yl)piperidine-1-carboxylate] | 9.69 | 50.6 |
| CC[C@@H](C)NC(=O)N1CCC[C@H](c2cc[nH]n2)[C@@H]1CO[C@H]1CC[C@@H](c2ccccc2)CC1 [Example 128, (CIS)-N-((R)-sec-butyl)-2-((((CIS)-4-phenylcyclohexyl)oxy)methyl)-3-(1H-pyrazol-3-yl)piperidine-1-carboxamide] | 5.94 | 69.6 |
